Experimental data as given in US6623981B2, “Detection of patients at risk for developing integrin antagonist/agonist mediated disease states” (Bristol-Myers Squibb Company, priority 1998, dated 2003).

Assays:
immobilized GPIIb/IIIa = target: T1, immobilized GPIIb/IIIa (Homo sapiens, UniProt P05106+P08514); experiment: GPIIb/IIIa DDAB ELISA: binding of plasma drug-dependent antibodies in presence versus absence of GPIIb/IIIa antagonist; conditions: for reactivity of the thrombocytopenic chimpanzee plasma in the DDAB ELISA / reactivity of the patient's plasma in the DDAB ELISA: in words; for ratio mOD/minute in the presence versus absence of the respective compound: antagonist 100 nM
T1 construct: GPIIb/IIIa was either obtained from commercial sources (Enzyme Research Laboratories) or purified as outlined below; Outdated platelet concentrates; tissue Enzyme Research Laboratories (alternative source; no catalogue number given); host or cells: outdated platelet concentrates (Interstate Blood Bank)
Procedure: (§1) In the ELISA Type-2 procedure, Costar Enzyme Immunoassay/Radioimmunoassay [EIA/RIA] 96 well flat bottom plates (medium binding [#3591]) were coated (4° C., 16 hours) with 250 ng of GPIIb/IIIa in phosphate buffered saline (PBS) containing 1 mM CaCl2 and 0.5 mM MgCl2 (PBS/Ca/Mg) in the presence or absence of the indicated GPIIb/IIIa antagonist (100 nM). After three washing steps (PBS/Ca/Mg containing 0.05% v/v Tween 20), plasma was diluted 1:5 in PBS/Ca/Mg containing 0.05% Tween 20 and added to the coated wells in the absence or presence of the indicated GPIIb/IIIa antagonist (100 nM) for 1 hour at room temperature. The wells were washed (PBS/Ca/Mg containing 0.05% v/v Tween 20) and incubated with peroxidase-labeled goat anti-human IgG (y) (Kirkegaard & Perry) for 1 hour at room temperature. The wells were washed (PBS/Ca/Mg containing 0.05% v/v Tween 20) and developed with o-phenyleninediamine [OPD] (0.4 mg/mL in phosphate citrate buffer containing sodium perborate [Sigma]). The change of absorbance was determined kinetically for 15 minutes at […] using a standard ELISA reader. Results are expressed as either delta OD [change in optical density] (Vmax plus compound)−(Vmax minus compound), or the ratio (Vmax plus compound/Vmax minus compound).
In the ELISA Type-1 procedure, after coating with GPIIb/IIIa, the plates were blocked with 1% goat serum (VWR Scientific) and 0.1% casein (Sigma) in PBS/Ca/Mg containing 0.05% Tween 20 for 30 minutes at room temperature, followed by the addition of plasma (diluted in PBS/Ca/Mg containing 0.05% Tween 20, 1% v/v goat serum, 0.1% casein) for 1 hour at room temperature. The secondary antibody was diluted 1:10,000 in PBS/Ca/Mg containing 0.05% Tween 20 and 0.1% casein, and added for 1 hour at room temperature. The bound peroxidase-labeled IgG was detected with 3,3′,5,5′-tetramethylbenzidine (TMB, substrate kit; Pierce) and change in absorbance was determined for 5 minutes at […]. In addition, in the ELISA Type-1 procedure, the respective GPIIb/IIIa antagonist (100 nM) was present in the appropriate wells throughout all incubation and washing steps. The ELISA Type-1 procedure with optimized blocking conditions combined with further purification of the GPIIb/IIIa reduced the background, resulting in increased signal to noise ratio. The immunoglobulin class of DDABs was determined using peroxidase-labeled murine monoclonal antibodies to human Ig (Zymed) as the detection step in the modified ELISA protocol. For these experiments, normal goat serum was replaced with normal murine serum (Zymed).
The ability of DDABs present in plasma from a patient and a chimpanzee to bind to immobilized GPIIb/IIIa in the presence of various GPIIb/IIIa antagonists were compared. Results are expressed as the ratio mOD/minute in the presence versus absence of the respective compound.
(§2) The reactivity of the patient's plasma with Compound A and metabolites thereof was compared. Metabolites of Compound A were isolated from rat urine and tested for their ability to prevent platelet aggregation in platelet-rich plasma. The ability of DDABs present in plasma from a patient to bind to GPIIb/IIIa in the presence of the indicated metabolites of Compound A was tested using the GPIIb/IIIa DDAB ELISA. All three metabolites of Compound A were active in preventing ADP-induced platelet aggregation using platelet rich plasma. While the metabolites only differ from the parental compound (Compound A) with respect to hydroxylation of a single carbon atom, the reactivity of the patient's DDABs with metabolite M-3 was only 50% and that with metabolite M-2 was undetectable.

[1] = tested on: platelet aggregation in platelet-rich plasma; experiment: ADP-induced platelet aggregation in platelet-rich plasma (PRP); assay type: cell-based
Procedure: as §2

GPIIb/IIIa = target: T2, GPIIb/IIIa (Homo sapiens, UniProt P05106+P08514); experiment: DDAB ELISA Type-2 screen of blood donor plasma (general population); assay type: binding; conditions: American Red Cross blood donors
T2 construct: GPIIb/IIIa was either obtained from commercial sources (Enzyme Research Laboratories) or purified as outlined below; Outdated platelet concentrates; tissue Enzyme Research Laboratories (alternative source; no catalogue number given); host or cells: outdated platelet concentrates (Interstate Blood Bank)
Procedure: as §1
The occurrence of DDABs in the general population was tested. Plasma samples from blood donors were obtained from the American Red Cross and tested for reactivity with Compound A and Compound B in the DDAB ELISA Type-2 procedure. While the majority of the blood donors were negative in the DDAB ELISA, 2.2 and 14.6% donors presented a reactivity (delta>3) with Compound A and Compound B, respectively. A reactivity with a delta >5 was only evident in 1.3% and 7.1% of the blood donors with Compound A and Compound B, respectively. Thus, the prevalence and titer of pre-existing DDABs is relatively low in the general population and varies with the respective GPIIb/IIIa antagonist employed.

gel purified platelets = experiment: Distribution of DDABs from plasma to gel purified platelets, dose-response of antagonist, read by DDAB ELISA; assay type: cell-based, human; conditions: plasma of healthy donor with DDABs to Compound A
Procedure: Panel A: Citrate plasma was obtained from two patients (307, 330) and a chimpanzee (A264) presenting with thrombocytopenic episodes while treated with GPIIb/IIIa antagonists Compound A or Compound D, respectively. The resulting plasma was incubated (30 minutes, room temperature) with gel purified platelets in the absence (closed bars) or presence (open bars) of Compound A (307, 330), or Compound D (A264). Platelets were removed by centrifugation, and the resulting plasma was analyzed by a GPIIb/IIIa-specific DDAB ELISA. The ELISA determines the binding of antibodies to GPIIb/IIIa in the presence of Compound A (307, 330) or Compound D (A264). […] Panel B: Citrate plasma derived from chimpanzee A264 (open circles) or an apparently healthy donor (closed circles) containing DDABs to Compound A was incubated with gel purified platelets in the presence of the indicated dose-response of Compound D (A264) or Compound A (healthy donor) as in panel A. Platelet poor plasma was prepared and analyzed by the DDAB ELISA as in panel A. Results are expressed as percentage inhibition of DDABs in plasma in comparison to samples treated with platelets in the absence of GPIIb/IIIa antagonist.
For solution-phase absorption in the DDAB ELISA, gel filtered platelets were prepared. […] Platelet-containing fractions were manually collected and platelet concentration was determined using a Coulter Counter. […]

[2] = Blood concentration in dosed patients; assay type: in vivo
[3] = plasma #330 (thrombocytopenic patient treated with Compound A)
[4] = plasma A264 (thrombocytopenic chimpanzee dosed with Compound D)

T1 sequence (P08514 32-887 limits assumed): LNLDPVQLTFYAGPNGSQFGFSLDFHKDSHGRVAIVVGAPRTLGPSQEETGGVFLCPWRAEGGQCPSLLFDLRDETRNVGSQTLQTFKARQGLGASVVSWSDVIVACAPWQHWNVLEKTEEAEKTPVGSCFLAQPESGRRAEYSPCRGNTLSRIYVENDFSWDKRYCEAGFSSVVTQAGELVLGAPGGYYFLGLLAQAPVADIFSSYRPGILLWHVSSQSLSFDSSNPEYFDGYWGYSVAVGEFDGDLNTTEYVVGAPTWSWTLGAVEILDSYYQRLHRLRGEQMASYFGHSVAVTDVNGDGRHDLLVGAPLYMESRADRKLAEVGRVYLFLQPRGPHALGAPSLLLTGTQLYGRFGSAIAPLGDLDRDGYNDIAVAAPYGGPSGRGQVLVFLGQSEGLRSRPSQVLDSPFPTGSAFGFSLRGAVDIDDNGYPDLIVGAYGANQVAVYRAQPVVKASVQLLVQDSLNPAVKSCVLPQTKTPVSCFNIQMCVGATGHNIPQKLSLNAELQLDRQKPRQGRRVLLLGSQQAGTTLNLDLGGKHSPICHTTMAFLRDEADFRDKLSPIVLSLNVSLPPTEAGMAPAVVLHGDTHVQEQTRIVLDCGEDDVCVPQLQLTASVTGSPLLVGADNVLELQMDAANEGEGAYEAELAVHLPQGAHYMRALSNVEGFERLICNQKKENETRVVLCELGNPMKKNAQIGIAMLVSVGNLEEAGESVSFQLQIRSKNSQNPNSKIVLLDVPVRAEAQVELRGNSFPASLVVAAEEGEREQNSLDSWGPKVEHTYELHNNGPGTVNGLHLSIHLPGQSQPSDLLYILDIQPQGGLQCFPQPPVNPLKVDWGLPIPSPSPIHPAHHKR
T1 sequence (P08514 891-1039 limits assumed): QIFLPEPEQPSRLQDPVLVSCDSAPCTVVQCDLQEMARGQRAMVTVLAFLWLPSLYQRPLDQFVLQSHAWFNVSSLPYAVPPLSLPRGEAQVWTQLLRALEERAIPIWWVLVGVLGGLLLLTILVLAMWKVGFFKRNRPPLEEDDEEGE
T1 sequence (P05106 27-788): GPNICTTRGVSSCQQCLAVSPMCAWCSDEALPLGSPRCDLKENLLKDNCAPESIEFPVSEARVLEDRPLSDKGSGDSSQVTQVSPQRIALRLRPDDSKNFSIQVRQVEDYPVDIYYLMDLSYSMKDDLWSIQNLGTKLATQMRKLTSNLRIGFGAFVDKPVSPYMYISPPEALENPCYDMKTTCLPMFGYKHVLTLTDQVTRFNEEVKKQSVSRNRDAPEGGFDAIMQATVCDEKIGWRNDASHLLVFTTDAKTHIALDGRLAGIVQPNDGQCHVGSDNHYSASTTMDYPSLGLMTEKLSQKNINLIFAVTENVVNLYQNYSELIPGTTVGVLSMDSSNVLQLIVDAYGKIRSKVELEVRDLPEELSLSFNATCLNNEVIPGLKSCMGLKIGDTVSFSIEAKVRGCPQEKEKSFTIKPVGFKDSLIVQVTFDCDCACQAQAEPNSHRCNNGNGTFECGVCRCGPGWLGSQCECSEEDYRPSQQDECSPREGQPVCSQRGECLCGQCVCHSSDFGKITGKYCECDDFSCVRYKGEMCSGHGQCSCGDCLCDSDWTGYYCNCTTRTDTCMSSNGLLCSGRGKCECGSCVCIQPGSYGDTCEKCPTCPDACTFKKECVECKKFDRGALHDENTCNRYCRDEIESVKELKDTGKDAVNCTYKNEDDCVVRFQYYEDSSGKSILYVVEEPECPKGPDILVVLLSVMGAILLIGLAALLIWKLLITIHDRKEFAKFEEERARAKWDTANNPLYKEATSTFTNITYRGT
T2 sequence (P08514 32-887 limits assumed): as the sequence (P08514 32-887 limits assumed) above
T2 sequence (P08514 891-1039 limits assumed): as the sequence (P08514 891-1039 limits assumed) above
T2 sequence (P05106 27-788): as the sequence (P05106 27-788) above

Row | Structure (SMILES) | ELISA ratio (immobilized GPIIb/IIIa; DDABs in plasma from a patient, binding to GPIIb/IIIa in presence of Compound A or its metabolites) | reactivity of the thrombocytopenic chimpanzee plasma in the DDAB ELISA (immobilized GPIIb/IIIa) | reactivity of the patient's plasma in the DDAB ELISA (immobilized GPIIb/IIIa) | ratio mOD/minute in the presence versus absence of the respective compound (immobilized GPIIb/IIIa; [3]) | ratio mOD/minute in the presence versus absence of the respective compound (immobilized GPIIb/IIIa; [4]) | IC50 [1] | blood donors with a reactivity with a delta >5 (GPIIb/IIIa) | donors presenting a reactivity (delta>3) (GPIIb/IIIa) | IC50 (gel purified platelets; estimated, read-out: IC50 (inhibition of DDABs in plasma by distribution to platelets)) | concentration required to completely shift the DDABs to the platelet surface (gel purified platelets; 30 minutes, room temperature) | Peak blood concentrations [2]
1 | CCCCOC(=O)N[C@@H](CNC(=O)C[C@H]1CC(c2ccc(C(=N)N)cc2)=NO1)C(=O)O [Compound A, 2(S)-[(n-butoxycarbonyl)amino]-3-[[[3-[4-(aminoiminomethyl)phenyl]isoxazolin-5 (R)-yl]methylcarbonyl]amino]propionic acid] | 13.5 | no reactivity | reacts strongly | 9.2 | 1.0 | 32 nM | 1.3% | 2.2% | ~0.3 nM | Less than 1 nM | up to 50 nM
2 | Cc1noc(C)c1S(=O)(=O)N[C@@H](CNC(=O)C[C@H]1CC(c2ccc(C(=N)N)cc2)=NO1)C(=O)O [Compound B] |  | no reactivity | reacts strongly | 11.2 | 0.8 |  | 7.1% | 14.6% |  |  | 
3 | Cc1ccc(S(=O)(=O)N[C@@H](CNC(=O)c2cc3n(n2)CCCN(CCC2CCNCC2)C3=O)C(=O)O)cc1 [Compound C, 2(S)-((4-methylphenylsulfonyl)amino]-3-[[[5,6,7,8-tetrahydro-4-oxo-5-[2-(piperidin-4-yl)ethyl]-4H-pyrazolo-[1,5-a][1,4]diazepin-2-yl]carbonyl]amino]propionic acid] |  | less | no reactivity | 1.0 | 5.4 |  |  |  |  |  | 
4 | O=C(NC[C@H](NS(=O)(=O)c1cccnc1)C(=O)O)c1cc2cc(CCC3CCNCC3)sc2s1 [Compound D, 5-[2-(piperdin-4-yl)ethyl]thieno[2,3-b]thiophene-2-N-(3-2(S)-(3-pyridinylsulfonylamino)propionic acid]carboxamide] |  | strongly reactive | reacts strongly | 4.9 | 14.4 |  |  |  |  |  | 
